Each structure is given as a SMILES string. ≈ marks a conversion by molar mass, not a printed value.

The results in this text go back to patent US20090062223A1, “AMINO TRICYCLIC-NUCLEOSIDE COMPOUNDS, COMPOSITIONS, AND METHODS OF USE” (GENELABS TECHNOLOGIES, INC., priority 2007, published 2009).

Series [1] is described as follows: Solubility (shaking flask). The conditions noted are these: thermodynamic from solid, 37° C. for 24 hours. It is filed as physicochemical. The procedure:
The solubility for certain compounds were determined using the following protocol and procedure. 1) The solution, sterile water or phosphate buffer solution (PBS), was added to the test compound tube to make the final concentration 10 mg/mL. 2) The sample tube was vortexed and incubated at 37° C. for 24 hours. During the incubation period, the sample tube was vortexed several times. 3) After the incubation, vortex the tube and centrifuge the tube at 13,000 rpm for 10 mins using an Eppendorf Centrifuge Model 5415C. If the solution was still cloudy, centrifuge it for longer until a clear supernatant was achieved. 4) The supernatant was diluted to 1×, 10× and 100× in 50% ACN in water. 5) A six point standard curve was prepared separately to make the final concentrations of 1 μg/mL, 5 μg/mL, 10 μg/mL, 20 μg/mL, 40 μg/mL and 60 μg/mL. 6) Samples were quantified using an HPLC with UV detector. 7) From the three concentrations of 1×, 10× and 100× supernatant, choose the value, which was fallen into the standard curve range (1 ug/mL-60 ug/mL), as the final result. If all the results were out of the curve range, adjust using a dilution factor to make the value within the curve range.

Series [2] can be described thus: Chemical stability in acidic solution (acid stability). It is filed as physicochemical. The conditions noted are these: pH 4.5 chemical solution; pH 4.5, 37° C.; read-out: Acid Stability (T ½, mins @ pH 4.5).
A further series relates to Caco-2 cells. Put plainly: in vitro. The format is in vitro ADME. The procedure: Caco-2 cells were maintained in Dulbecco's Modification of Eagle's Medium (DMEM) with sodium pyruvate, Glutmax supplemented with 1% Pen/Strep, 1% NEAA and 10% fetal bovine serum in an incubator set at 37° C., 90% humidity and 5% CO2. Caco-2 cells between passage 43 and 61 were grown to confluence over at least 21-days on 24 well PET (polyethylene-terephthalate) plates (BD Biosciences). Experiments were run using a new HBSS donor buffer from Invitrogen containing additional 10 mM HEPES, 15 mM Glucose with pH adjusted to pH 6.5. The receiver well used HBSS buffer supplemented with 1% BSA and the pH adjusted to pH 7.4. After an initial equilibration with transport buffer, TEER values were read to test membrane integrity. The experiment was started by the addition of buffers containing test compounds and 100 μl of solution is taken at 1 and 2 hrs from the receiver compartment. Removed buffer was replaced with fresh buffer and a correction was applied to all calculations for the removed material. Each compound was tested in 2 separate replicate wells for each condition. All samples were immediately collected into 400 μl 100% acetonitrile acid to precipitate protein and stabilize test compounds. Cells were dosed on the apical or basolateral side to determine forward (A to B) and reverse (B to A) permeability. Permeability through a cell free trans-well was also determined as a measure of cellular permeability through the membrane and non-specific binding. To test for non-specific binding and compound instability the total amount of drug was quantitated at the end of the experiment and compared to the material present in the original dosing solution as a percent recovery. Samples were analyzed by LC/MS/MS.
The apparent permeability, Papp, and % recovery were calculated as follows: […]
where, • dR/dt is the slope of the cumulative concentration in the receiver compartment versus time in μM/s based on receiver concentrations measured at 60 and 120 minute. • Vr and Vd is the volume in the receiver and donor compartment in cm^3, respectively. • A is the area of the cell monolayer (0.33 cm^2). • D0 and D120 is the measured donor concentration at the beginning and end of the experiment, respectively. • R120 is the receiver concentration at the end of the experiment (120 minutes).
The apparent permeability for certain compounds were determined using the above procedure.

[3] abbreviates: phosphate buffer solution (PBS), aqueous buffer, PBS.

What is called solubility is how much of the substance goes into solution per volume. High values mean much dissolved substance, low ones little dissolved substance. Take `CCCCCC(=O)OC[C@H]1O[C@@H](n2cc3c4c(ncnc42)NC(=O)C=C3N)[C@@](C)(O)[C@@H]1O` (stereo in doubt) [Compound 101, Hexanoic acid 5-(9-amino-7-oxo-6,7-dihydro-2,3,5,6-tetraaza-benzo[cd]azulen-2-yl)-3,4-dihydroxy-4-methyl-tetrahydro-furan-2-ylmethylester]: the concentration in solution in series [1] (setting [3]) (solubility at 24 h) came to 137 µg/mL (≈ 308 µM). Further, the half-life at 1 µg/mL in series [2] was less than 30 min. In the series with Caco-2 cells, the “Permeability Papp (A to B) × 10^−6 cm/s (Caco-2 A-B)” value (“Permeability Papp” for short) is given as “high”.

With `CCCCCOC(=O)OC[C@H]1O[C@@H](n2cc3c4c(ncnc42)NC(=O)C=C3N)[C@@](C)(O)[C@@H]1O` (stereo in doubt) [Compound 103, Carbonic acid 5-(9-amino-7-oxo-6,7-dihydro-2,3,5,6-tetraaza-benzo[cd]azulen-2-yl)-3,4-dihydroxy-4-methyl-tetrahydro-furan-2-ylmethylester pentyl ester], the half-life at 1 µg/mL in series [2] is no more than 30 min. Also, the “Permeability Papp” value with Caco-2 cells is on record as “low”.

The molecule `CC(C)C(=O)OC[C@H]1O[C@@H](n2cc3c4c(ncnc42)NC(=O)C=C3N)[C@@](C)(O)[C@@H]1O` (stereo in doubt) [Compound 105, Isobutyric acid 5-(9-amino-7-oxo-6,7-dihydro-2,3,5,6-tetraaza-benzo[cd]azulen-2-yl)-3,4-dihydroxy-4-methyl-tetrahydro-furan-2-ylmethylester] yielded a solubility at 24 h in series [1] (setting [3]) of 9060 µg/mL (≈ 21700 µM). The half-life at 1 µg/mL in series [2] is less than 30 min. Besides, the “Permeability Papp” value in the series with Caco-2 cells is listed as “high”.

`CC(C)C(=O)OCOC(=O)NC1=CC(=O)Nc2ncnc3c2c1cn3[C@@H]1O[C@H](CO)[C@@H](O)[C@]1(C)O` (stereo in doubt) [Compound 109, Isobutyric acid 2-(3,4-dihydroxy-5-hydroxymethyl-3-methyl-tetrahydro-furan-2-yl)-7-oxo-6,7-dihydro-2H-2,3,5,6-tetraaza-benzo[cd]azulen-9-ylcarbamoyloxymethyl ester] returned a solubility at 24 h in series [1] (setting [3]) of 215 µg/mL (≈ 437 µM). For the same molecule, the half-life at 1 µg/mL in series [2] is greater than 120 min. For the same molecule, the “Permeability Papp” value in the series on Caco-2 cells is listed as “low”.

Molecule `CC(C)C(=O)O[C@@H]1[C@@H](CO)O[C@@H](n2cc3c4c(ncnc42)NC(=O)C=C3N)C1(C)O` (stereo in doubt) [Compound 115, Isobutyric acid 5-(9-amino-7-oxo-6,7-dihydro-2,3,5,6-tetraaza-benzo[cd]azulen-2-yl)-4-hydroxy-2-hydroxymethyl-4-methyl-tetrahydro-furan-3-yl ester] registered a solubility at 24 h in series [1] (setting [3]) of 134 µg/mL (≈ 321 µM). Moreover, the half-life at 1 µg/mL in series [2] was less than 30 min. Also, the “Permeability Papp” value with Caco-2 cells is “high”.

As to `CC(C)C(=O)OC[C@H]1O[C@@H](n2cc3c4c(ncnc42)NC(=O)C=C3N)[C@@](C)(O)[C@@H]1OC(=O)C(C)C` (stereo in doubt) [Compound 134, Isobutyric acid 5-(9-amino-7-oxo-6,7-dihydro-2,3,5,6-tetraaza-benzo[cd]azulen-2-yl)-4-hydroxy-3-isobutyryloxy-4-methyl-tetrahydro-furan-2-ylmethyl ester], the solubility at 24 h in series [1] (setting [3]) stood at 67 µg/mL (≈ 137 µM). The half-life at 1 µg/mL in series [2] is less than 30 min. In addition, the “Permeability Papp” value with Caco-2 cells was “low”.

`CC(=O)OC[C@H]1O[C@@H](n2cc3c4c(ncnc42)NC(=O)C=C3N)[C@@](C)(O)[C@@H]1OC(C)=O` (stereo in doubt) [Compound 135, Acetic acid 3-acetoxy-5-(9-amino-7-oxo-6,7-dihydro-2,3,5,6-tetraaza-benzo[cd]azulen-2-yl)-4-hydroxy-4-methyl-tetrahydro-furan-2-ylmethylester] displayed a solubility at 24 h in series [1] (setting [3]) of 7280 µg/mL (≈ 16900 µM). The half-life at 1 µg/mL in series [2] is less than 15 min. Besides, the “Permeability Papp” value in the series on Caco-2 cells was “medium”.

With `CC1(O)C(O)C(CO)OC1n1cc2c3c(ncnc31)NC(=O)C=C2N` (stereo not shown) [Compound 100, 9-amino-2-(3,4-dihydroxy-5-hydroxymethyl-3-methyl-tetrahydro-furan-2-yl)-2,6-dihydro-2,3,5,6-tetraaza-benzo[cd]azulen-7-one, reference compound], the solubility at 24 h in series [1] (setting [3]) turned out to be 11 µg/mL (≈ 31.7 µM). The half-life at 1 µg/mL in series [2] is less than 15 min. Further, in the series on Caco-2 cells, the “Permeability Papp” value is given as “low”.

Regarding `CC(C)C(=O)OC[C@H]1O[C@@H](n2cc3c4c(ncnc42)NC(=O)C=C3N)[C@@]2(C)OC(=O)O[C@H]12` [Compound 106, Isobutyric acid 6-(9-amino-7-oxo-6,7-dihydro-2,3,5,6-tetraaza-benzo[cd]azulen-2-yl)-6a-methyl-2-oxo-tetrahydro-furo[3,4-d][1,3]dioxol-4-ylmethyl ester], in series [1] (setting [3]), the concentration in solution (solubility at 24 h) came to 65 µg/mL (≈ 147 µM). Further, the half-life at 1 µg/mL in series [2] is less than 30 min. In the series with Caco-2 cells, the “Permeability Papp” value is “high”.

Molecule `CC(=O)OC[C@H]1O[C@@H](n2cc3c4c(ncnc42)NC(=O)C=C3N)[C@@]2(C)OC(=O)O[C@H]12` [Compound 108, Acetic acid 6-(9-amino-7-oxo-6,7-dihydro-2,3,5,6-tetraaza-benzo[cd]azulen-2-yl)-6a-methyl-2-oxo-tetrahydro-furo[3,4-d][1,3]dioxol-4-ylmethyl ester] registered a solubility at 24 h in series [1] (setting [3]) of 28 µg/mL (≈ 67.4 µM). Besides, in series [2], the half-life at 1 µg/mL was less than 15 min. Moreover, the “Permeability Papp” value in the series on Caco-2 cells is on record as “medium”.

Regarding `CCCCCC(=O)O[C@@H]1[C@@H](CO)O[C@@H](n2cc3c4c(ncnc42)NC(=O)C=C3N)[C@]1(C)O` [Compound 113, Hexanoic acid 5-(9-amino-7-oxo-6,7-dihydro-2,3,5,6-tetraaza-benzo[cd]azulen-2-yl)-4-hydroxy-2-hydroxymethyl-4-methyl-tetrahydro-furan-3-yl ester], the solubility at 24 h in series [1] (setting [3]) turned out to be 67 µg/mL (≈ 150 µM). Besides, the half-life at 1 µg/mL in series [2] is less than 30 min. Besides, the “Permeability Papp” value in the series on Caco-2 cells was “medium”.

For `CC12OC(=O)O[C@@H]1[C@@H](CO)O[C@H]2n1cc2c3c(ncnc31)NC(=O)C=C2N` (stereo partly shown) [Compound 116, 9-Amino-2-(6-hydroxymethyl-3a-methyl-2-oxo-tetrahydro-furo[3,4-d][1,3]dioxol-4-yl)-2,6-dihydro-2,3,5,6-tetraaza-benzo[cd]azulen-7-one], the concentration in solution in series [1] (setting [3]) (solubility at 24 h) came to 202 µg/mL (≈ 541 µM). In addition, the half-life at 1 µg/mL in series [2] was less than 30 min. Moreover, the “Permeability Papp” value with Caco-2 cells is listed as “low”.

In turn, `CC(=O)N[C@H](C(=O)OC[C@H]1O[C@@H](n2cc3c4c(ncnc42)NC(=O)C=C3N)C(C)(O)[C@@H]1O)C(C)C` (stereo partly shown) [Compound 124, 2-Acetylamino-3-methyl-butyric acid5-(9-amino-7-oxo-6,7-dihydro-2,3,5,6-tetraaza-benzo[cd]azulen-2-yl)-3,4-dihydroxy-4-methyl-tetrahydro-furan-2-ylmethyl ester] showed a solubility at 24 h in series [1] (setting [3]) of 6250 µg/mL (≈ 12800 µM). For the same molecule, the half-life at 1 µg/mL in series [2] was less than 30 min. Besides, the “Permeability Papp” value with Caco-2 cells was “low”.

`CC(C)C(=O)OCOC(=O)NC1=CC(=O)Nc2ncnc3c2c1cn3[C@@H]1O[C@H](COC(=O)C(C)C)[C@@H](O)C1(C)O` (stereo partly shown) [Compound 129, Isobutyric acid 3,4-dihydroxy-5-(9-isobutyryloxymethoxycarbonyl-amino-7-oxo-6,7-dihydro-2,3,5,6-tetraaza-benzo[cd]azulen-2-yl)-4-methyl-tetrahydro-furan-2-ylmethylester] yielded a solubility at 24 h in series [1] (sterile water, water) of 120 µg/mL (≈ 214 µM). Further, the half-life at 1 µg/mL in series [2] is greater than 120 min.
